The values below come from patent EP4556003A1, “ANTI-OBESITY AND ANTI-DIABETIC ACTIVITY OF BROMINATED DITERPENES FROM RED ALGAE OF THE GENUS LAURENCIA AND APPLICATIONS THEREOF” (priority 2023, dated 2025).

The conditions of data set [1]: reference [12]; cited from earlier work.
The test system of data set [2] is 3T3-L1 cells. Briefly: MTT cell viability / proliferation assay. It counts as cell-based, Mouse. How it is done:
The cell viability was evaluated using the MTT assay. 3T3-L1 cells were seeded at a density of 1×10^3 in 96-well plates and incubated for 24h. Compounds 1 and 2 were added in the wells at various concentrations and then incubated at 37 °C. Cells were treated with compound 1 at concentrations of 62.5, 46.875, 31.25, 15.625, 7.81 and 3.9 µM. Cells were treated with compound 2 at concentrations of 62.5, 25.0, 12.5, 6.25 and 3.125 µM. After 24, 48, and 72 h of treatment, MTT solution was added in the wells at a final concentration of 0.5 mg/mL and incubated for 4 h. Cell culture media with MTT was removed and the formazan crystals were dissolved in 100 µl/well isopropanol/HCl (0.4%) and the absorbance was measured at 600 nm using the Infinite® 200 PRO microplate plate reader (Tecan, Zurich, Switzerland).

In data set [3] the test system is 3T3-L1 adipocytes. Briefly: Oil red o staining of intracellular lipid accumulation. It counts as cell-based, Mouse. The settings on record: differentiation induced in the presence of compound, after 12 days; 1 at 62.5 µM, 2 at 25 µM. How it is done:
Mouse 3T3-L1 preadipocytes were maintained in proliferation medium containing DMEM supplemented with 10% (v/v) heat inactivated NBCS and 1% (v/v) penicillin-streptomycin at 37 °C with 5% CO2, humidified atmosphere. Cells were seeded in T-75 flasks at a density of 25×10^4 cells/flask. Cultures never became completely confluent according to the manufacturer's instructions. They were passaged using trypsin-EDTA solution once they reached 70-80% confluency. For differentiation, 3T3-L1 cells were seeded and after 24 h (day 1), cell differentiation was induced by changing the medium to high glucose DMEM containing 10% (v/v) heat inactivated FBS, 1% penicillin-streptomycin, 10 µg/mL insulin, 0.25 µM Dexamethasone (GAP), 0.5 mM IBMX (=differentiation medium I). On day 3, the medium was changed to high glucose DMEM containing 10% FBS, 1% penicillin- streptomycin, and 10 µg/mL insulin (=differentiation medium II). Thereafter, medium was changed every other day switching between differentiation medium I and differentiation medium II until day 12 or 23, when adipocytes were harvested. Control group preadipocytes were seeded at a higher density and harvested after two days. Test compounds were administered either at the initiation of differentiation, or after 15 days of differentiation and with every medium change. To determine the effect on preadipocyte differentiation, cells were seeded and after 24 h they were treated with neorogioldiol. Neorogioldiol was maintained in the culture medium throughout cell differentiation period. To determine the effect of neorogioldiol on mature adipocytes, cells were seeded and induced to differentiate for 14 days, then on day 15 neorogioldiol was added to the differentiation medium for 24 h before cells were harvested. Each compound used was diluted in a 90% carbowax™ 400, 10% (v/v) absolute ethanol solution serving as a control solvent. The final concentration in culture was 0.09% (v/v) carbowax and 0.01% (v/v) ethanol. […]
Oil red o staining was applied to measure lipid accumulation intracellularly. Briefly, after 12 or 23 days of differentiation, the cell culture medium was removed and the 3T3-L1 adipocytes were fixed in 3.7% formaldehyde for 60 min at room temperature. Next, a solution of 0.21% oil red o was filtered using a 0.45 µm filter followed by incubation of the fixed cells for 45 min at room temperature. Excess dye was removed and cells were washed twice with PBS. Fresh PBS was added and the lipid droplets within the differentiated 3T3-L1 cells were visualized and photographed by microscopy. For quantitative analysis, oil red o staining was eluted with 100% isopropanol and the absorbance was measured at 510 nm using the Infinite® 200 PRO microplate plate reader (Tecan, Zurich, Switzerland).

Data set [4] has as its system 3T3-L1 cells. The experiment in a line: Quantitative PCR of relative mRNA expression in cell culture samples. It counts as cell-based, Mouse. The settings on record: cells differentiated in the presence of compound, 12 days; 1 at 62.5 µM, 2 at 25 µM. How it is done:
Mouse 3T3-L1 preadipocytes were maintained in proliferation medium containing DMEM supplemented with 10% (v/v) heat inactivated NBCS and 1% (v/v) penicillin-streptomycin at 37 °C with 5% CO2, humidified atmosphere. Cells were seeded in T-75 flasks at a density of 25×10^4 cells/flask. Cultures never became completely confluent according to the manufacturer's instructions. They were passaged using trypsin-EDTA solution once they reached 70-80% confluency. For differentiation, 3T3-L1 cells were seeded and after 24 h (day 1), cell differentiation was induced by changing the medium to high glucose DMEM containing 10% (v/v) heat inactivated FBS, 1% penicillin-streptomycin, 10 µg/mL insulin, 0.25 µM Dexamethasone (GAP), 0.5 mM IBMX (=differentiation medium I). On day 3, the medium was changed to high glucose DMEM containing 10% FBS, 1% penicillin- streptomycin, and 10 µg/mL insulin (=differentiation medium II). Thereafter, medium was changed every other day switching between differentiation medium I and differentiation medium II until day 12 or 23, when adipocytes were harvested. Control group preadipocytes were seeded at a higher density and harvested after two days. Test compounds were administered either at the initiation of differentiation, or after 15 days of differentiation and with every medium change. To determine the effect on preadipocyte differentiation, cells were seeded and after 24 h they were treated with neorogioldiol. Neorogioldiol was maintained in the culture medium throughout cell differentiation period. To determine the effect of neorogioldiol on mature adipocytes, cells were seeded and induced to differentiate for 14 days, then on day 15 neorogioldiol was added to the differentiation medium for 24 h before cells were harvested. Each compound used was diluted in a 90% carbowax™ 400, 10% (v/v) absolute ethanol solution serving as a control solvent. The final concentration in culture was 0.09% (v/v) carbowax and 0.01% (v/v) ethanol. Compounds were used at the following concentrations: neorogioldiol (1) 62.5µM and neorogioltriol (2) 25µM.
Adipocytes and preadipocytes were harvested using the TRI Reagent®. RNA isolation was carried out according to the manufacturer's instructions. The purified RNA was quantified using the Nanodrop micro-volume spectrophotometer and 500 ng of each sample were used as a template for reverse transcription. cDNA synthesis was performed using the PrimeScriptTM RT reagent Kit (TaKaRa, RR037A) according to manufacturer's instructions. The cDNA produced by the above described procedure was diluted and used as a template for two-step quantitative PCR in a StepOnePlus™ Real-Time PCR System (Applied Biosystems™, 4376600) for a maximum of 40 cycles, as follows: start step 95 °C for 3 min, repeat steps: 95 °C for 15 s and 60 °C for 30 s. Amplification was performed using KAPA SYBR® FAST Universal qPCR kit (Kapa Biosystems, KK4618) according to manufacturer's instructions. Relative quantitative analysis was accomplished calculating fold-changes of gene expression as 2-(ΔΔCt), where ΔCt is (Ct (gene of interest) - Ct (housekeeping gene)). Ppib was used as internal control gene in 3T3L1 cells and in the fat fraction of mice abdominal fat, Rps9 was used as internal control gene in the stromal vascular fraction of mice abdominal fat and Actb was used as internal control gene in liver samples. Table 1. List of primers used for quantitative real-time PCR analysis.

The conditions of data set [5]: references [10, 11]; cited from earlier work.
In data set [6] the test system is NFKB1. As to conditions: in vitro model, reference [11]; cited from earlier work.
The test system of data set [7] is COX2. As to conditions: in vitro model, reference [11]; cited from earlier work.

For the molecule “O^11,15-cyclo-14-bromo-14,15-dihydrorogiol-3,11-diol”, the anti-inflammatory activity entry in data set [1] is “potent anti-inflammatory activity”.
As for `C=C([C@H]1CC[C@@](C)(O)[C@@H](Br)C1)[C@H]1[C@H](O)[C@@H]2[C@@H](CC[C@@]2(C)O)C1(C)C` [neorogioltriol], the “concentrations that did not exhibit cytotoxicity” value in data set [2] (concentration chosen for further analyses) turned out to be 25 µM. Besides, the “concentration with cytostatic effects” value in data set [2] (three-day incubation (24, 48, 72 h), compound 1: after the first 24 h of treatment) is given as “above 25 µM”. Further, the lipid accumulation entry in data set [3] is reported as “increased lipid accumulation”. Besides, in data set [4], the Adipoq expression levels result is “restricted the increase”, the “Dlkl mRNA expression” value is listed as “did not change”, the Lep expression levels entry is given as “restricted the increase” and the Slc2a4 expression levels result is “restricted the increase”. Besides, in data set [5], the “analgesic properties in vivo” value is on record as “potent” and the “anti-inflammatory properties in vivo” value is “potent”. In addition, the NFKB1 levels result in data set [6] is reported as “reducing”. Moreover, the COX2 levels result in data set [7] is reported as “reducing”.
